System: LPS triggered IL-10 secretion in monocytes
Test: Monocytes assay: LPS-triggered IL-10 (ELISA)
Assay type: cell-based, human
Details: Homo sapiens, Monocyte, LPS-triggered IL-10 induction, median maximal fold change vs LPS only, read-out: IL-10 FCmax median
Outline: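 CD14+ monocytes bead-isolated from human PBMCs, pretreated with compound 1 h at 37 °C (0.2% DMSO), then stimulated with LPS 200 ng/mL for 4 h. Supernatant IL-10 measured by chemiluminescent sandwich ELISA; fold change versus LPS only per concentration, reported as maximal fold change (FCmax).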

Question: With `COc1cc(-c2cnn3cc(C(C)(C)CO)ccc23)cc(OC(F)F)c1C(=O)NC1CC1` [Cpd 236, N-cyclopropyl-2-(difluoromethoxy)-4-[6-(2-hydroxy-1,1-dimethyl-ethyl)pyrazolo[1,5-a]pyridin-3-yl]-6-methoxy-benzamide] as the compound, how does the maximal fold induction read?
Answer: < 1.5

Question: For `COc1cc(-c2cnn3cc(C4(C#N)CCOCC4)ccc23)cc(OC(F)F)c1C(=O)NC1CC1` [Cpd 237, 4-[6-(4-cyanotetrahydropyran-4-yl)pyrazolo[1,5-a]pyridin-3-yl]-N-cyclopropyl-2-(difluoromethoxy)-6-methoxy-benzamide], which maximal fold induction is on record?
Answer: < 1.5

Question: With `COc1cc(-c2cnn3cc(C4(O)CCC4)ccc23)cc(OC(F)F)c1C(=O)N[C@@H]1C[C@@H]1F` [Cpd 266, 2-(difluoromethoxy)-N-[(1R,2S)-2-fluorocyclopropyl]-4-[6-(1-hydroxycyclobutyl)pyrazolo[1,5-a]pyridin-3-yl]-6-methoxy-benzamide] as the compound, how does the maximal fold induction read?
Answer: < 1.5

Question: Which maximal fold induction does the source give for `COc1cc(-c2cnn3cc(C(C)(C)CN4CCOCC4)ccc23)cc(OC(F)F)c1C(=O)N[C@@H]1C[C@@H]1F` [Cpd 269, 2-(difluoromethoxy)-4-[6-(1,1-dimethyl-2-morpholino-ethyl)pyrazolo[1,5-a]pyridin-3-yl]-N-[(1R,2S)-2-fluorocyclopropyl]-6-methoxy-benzamide] here?
Answer: 1.5 to 4.5

Question: `[2H]C([2H])([2H])C(C#N)(c1ccc2c(-c3cc(OC)c(C(=O)N[C@@H]4C[C@@H]4F)c(OC(F)F)c3)cnn2c1)C([2H])([2H])[2H]` [Cpd 275, 4-[6-[1-cyano-2,2,2-trideuterio-1-(trideuteriomethyl)ethyl]pyrazolo[1,5-a]pyridin-3-yl]-2-(difluoromethoxy)-N-[(1R,2S)-2-fluorocyclopropyl]-6-methoxy-benzamide] was tested. Which maximal fold induction did it give?
Answer: 1.5 to 4.5
